In PubChem BioAssay AID2060895 (Molecular Pharmacology Branch, DTP, NCI, 2025):

Tested on: PDC 899932-113-R3-J6 complex spheroid viability
Test: Anticancer human tumor 899932-113-R3-J6-PDC patient-derived melanoma cell line growth inhibition [RAS]
Conditions: for IC50: curve of first compound; for viability, T/C: stronger effect = lower value
How it was run: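 Multi-cell-type spheroids: tumor cells plus HUVEC endothelial cells and mesenchymal stem cells. RAS-pathway inhibitors were combined with targeted agents, each dosed in half-log steps down from clinical Cmax, or from 10 microM when Cmax was unknown.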

[1] = second compound 0.000949 µM, first compound 0.0316 µM
[2] = second compound 0.000949 µM, first compound 0.1 µM
[3] = second compound 0.000949 µM, first compound 0.316 µM
[4] = second compound 0.000949 µM, first compound 1 µM
[5] = second compound 0.003 µM, first compound 0.0316 µM
[6] = second compound 0.003 µM, first compound 0.1 µM
[7] = second compound 0.003 µM, first compound 0.316 µM
[8] = second compound 0.003 µM, first compound 1 µM
[9] = second compound 0.00949 µM, first compound 0.0316 µM
[10] = second compound 0.00949 µM, first compound 0.1 µM
[11] = second compound 0.00949 µM, first compound 0.316 µM
[12] = second compound 0.00949 µM, first compound 1 µM
[13] = second compound 0.03 µM, first compound 0.0316 µM
[14] = second compound 0.03 µM, first compound 0.1 µM
[15] = second compound 0.03 µM, first compound 0.316 µM
[16] = second compound 0.03 µM, first compound 1 µM
[17] = second compound 0.0949 µM, first compound 0.0316 µM
[18] = second compound 0.0949 µM, first compound 0.1 µM
[19] = second compound 0.0949 µM, first compound 0.316 µM
[20] = second compound 0.0949 µM, first compound 1 µM
[21] = second compound 0.3 µM, first compound 0.0316 µM
[22] = second compound 0.3 µM, first compound 0.1 µM
[23] = second compound 0.3 µM, first compound 0.316 µM
[24] = second compound 0.3 µM, first compound 1 µM
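For viability, T/C in this document: spheroids exposed to agents for seven days before readout; 100% = DMSO vehicle control wells.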

CC(=O)OC12COC1CC(O)C1(C)C(=O)C(O)C3=C(C)C(OC(=O)C(O)C(NC(=O)OC(C)(C)C)c4ccccc4)CC(O)(C(OC(=O)c4ccccc4)C21)C3(C)C (centres undefined) + CCn1c(-c2cc(N3CCN(C)CC3)cnc2C(C)OC)c2c3cc(ccc31)-c1csc(n1)CC(NC(=O)C1CC1C)C(=O)N1CCCC(N1)C(=O)OCC(C)(C)C2
IC50 (second compound 0.000949 µM): < 31.6 nM | IC50 (second compound 0.003 µM): < 31.6 nM | IC50 (second compound 0.00949 µM): < 31.6 nM | IC50 (second compound 0.03 µM): < 31.6 nM | IC50 (second compound 0.0949 µM): < 31.6 nM | IC50 (second compound 0.3 µM): < 31.6 nM | viability, T/C [1]: 18.6% | viability, T/C [2]: 18.4% | viability, T/C [3]: 26.5% | viability, T/C [4]: 36.3% | viability, T/C (second compound 0.000949 µM, first compound 3.16 µM): 45.5% | viability, T/C (second compound 0.000949 µM, first compound 10 µM): 47.2% | viability, T/C [5]: 8.34% | viability, T/C [6]: 10.3% | viability, T/C [7]: 12.4% | viability, T/C [8]: 14.1% | viability, T/C (second compound 0.003 µM, first compound 3.16 µM): 18.3% | viability, T/C (second compound 0.003 µM, first compound 10 µM): 21.1% | viability, T/C [9]: 3.98% | viability, T/C [10]: 3.52% | viability, T/C [11]: 3.63% | viability, T/C [12]: 3.09% | viability, T/C (second compound 0.00949 µM, first compound 3.16 µM): 3.96% | viability, T/C (second compound 0.00949 µM, first compound 10 µM): 4.11% | viability, T/C [13]: 2.05% | viability, T/C [14]: 1.55% | viability, T/C [15]: 1.79% | viability, T/C [16]: 1.78% | viability, T/C (second compound 0.03 µM, first compound 3.16 µM): 1.72% | viability, T/C (second compound 0.03 µM, first compound 10 µM): 1.3% | viability, T/C [17]: 1.14% | viability, T/C [18]: 1.02% | viability, T/C [19]: 1.61% | viability, T/C [20]: 0.79% | viability, T/C (second compound 0.0949 µM, first compound 3.16 µM): 0.68% | viability, T/C (second compound 0.0949 µM, first compound 10 µM): 0.72% | viability, T/C [21]: 1.95% | viability, T/C [22]: 0.96% | viability, T/C [23]: 1.47% | viability, T/C [24]: 0.52% | viability, T/C (second compound 0.3 µM, first compound 3.16 µM): 0.57% | viability, T/C (second compound 0.3 µM, first compound 10 µM): 0.59%

Nc1ccn(C2OC(CO)C(O)C2(F)F)c(=O)n1 (centres undefined) + CCn1c(-c2cc(N3CCN(C)CC3)cnc2C(C)OC)c2c3cc(ccc31)-c1csc(n1)CC(NC(=O)C1CC1C)C(=O)N1CCCC(N1)C(=O)OCC(C)(C)C2
IC50 (second compound 0.000949 µM): 5.85 nM | IC50 (second compound 0.003 µM): < 3.16 nM | IC50 (second compound 0.00949 µM): < 3.16 nM | IC50 (second compound 0.03 µM): < 3.16 nM | IC50 (second compound 0.0949 µM): < 3.16 nM | IC50 (second compound 0.3 µM): < 3.16 nM | viability, T/C (second compound 0.000949 µM, first compound 0.00316 µM): 62.9% | viability, T/C (second compound 0.000949 µM, first compound 0.01 µM): 38.6% | viability, T/C [1]: 19.2% | viability, T/C [2]: 10.9% | viability, T/C [3]: 10.9% | viability, T/C [4]: 12.7% | viability, T/C (second compound 0.003 µM, first compound 0.00316 µM): 34.1% | viability, T/C (second compound 0.003 µM, first compound 0.01 µM): 22.6% | viability, T/C [5]: 9.17% | viability, T/C [6]: 6.99% | viability, T/C [7]: 7.8% | viability, T/C [8]: 7.27% | viability, T/C (second compound 0.00949 µM, first compound 0.00316 µM): 3.07% | viability, T/C (second compound 0.00949 µM, first compound 0.01 µM): 3.15% | viability, T/C [9]: 3.74% | viability, T/C [10]: 3.5% | viability, T/C [11]: 3.59% | viability, T/C [12]: 3.95% | viability, T/C (second compound 0.03 µM, first compound 0.00316 µM): 2.89% | viability, T/C (second compound 0.03 µM, first compound 0.01 µM): 2.31% | viability, T/C [13]: 3.09% | viability, T/C [14]: 3.08% | viability, T/C [15]: 2.1% | viability, T/C [16]: 2.81% | viability, T/C (second compound 0.0949 µM, first compound 0.00316 µM): 2.38% | viability, T/C (second compound 0.0949 µM, first compound 0.01 µM): 1.69% | viability, T/C [17]: 2.42% | viability, T/C [18]: 2.17% | viability, T/C [19]: 1.85% | viability, T/C [20]: 2.61% | viability, T/C (second compound 0.3 µM, first compound 0.00316 µM): 1.86% | viability, T/C (second compound 0.3 µM, first compound 0.01 µM): 2% | viability, T/C [21]: 2.22% | viability, T/C [22]: 2.4% | viability, T/C [23]: 2.26% | viability, T/C [24]: 1.79%
